This is an account of results in PMC10441460, “Identification of Selective ATP-Competitive CMG Helicase Inhibitors for Cancer Intervention that Disrupt CMG-Replisome Function” (Research Square, 2023).

Data set [1] concerns T1, human CMG helicase (Cdc45-MCM-GINS; Mcm2-7 ATPase core).
T1 construct: 11-subunit hCMG holoenzyme co-expressed by baculovirus in insect cells (Cdc45, Mcm2-7, GINS); with Cdc45 and GINS (Sld5, Psf1, Psf2, Psf3)
As to the kind of experiment: DNA fork-unwinding helicase assay, dose-dependent suppression. In kind it is biochemical.

For data set [2], the system named is T2, Nc1ncnc2c1ncn2[C@@H]1O[C@H](COP(=O)(O)OP(=O)(O)OP(=O)(O)O)[C@@H](O)[C@H]1O.
T2 construct: 11-subunit hCMG holoenzyme co-expressed by baculovirus in insect cells (Cdc45, Mcm2-7, GINS); with Cdc45 and GINS (Sld5, Psf1, Psf2, Psf3)
As to the kind of experiment: helicase kinetics with increasing ATP (Km). The data set is classed as biochemical, Homo sapiens. To be noted: Mg2+ MCM ATPase clefts formed between adjacent MCM subunit pairs.

On to `Nc1ncnc2c1ncn2[C@@H]1O[C@H](COP(=O)(O)OP(=O)(O)OP(O)(O)=S)[C@@H](O)[C@H]1O` [ATP-γ-S], for which the “DNA fork-unwinding helicase assay, dose-dependent suppression” value in data set [1] is “dose-dependent suppression of fork-unwinding activity in the presence of slow-hydrolyzable ATP-γ-S”.
Consider “human CMG helicase (Cdc45-MCM-GINS; Mcm2-7 ATPase core) (Homo sapiens)”, for which, in data set [2], the Km is on record as 690 µM.

The term Km denotes the substrate concentration at which the rate is half of its maximum.
